According to PubChem BioAssay (NCI):
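Cultured in 96-well plates, cells were exposed to test compound for 48 hours across five concentrations. At the GI50, growth is halved. TGI is the concentration that stops growth completely.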

How the values were obtained:
Assay in all cases: growth of human tumour cells (NCI), 48 h
ACHN renal = system: ACHN renal
HOP-92 NSCLC = system: HOP-92 NSCLC
NCI-H23 lung = system: NCI-H23 lung
DU-145 prostate = system: DU-145 prostate
EKVX NSCLC = system: EKVX NSCLC
IGROV1 ovarian = system: IGROV1 ovarian
UACC-257 melanoma = system: UACC-257 melanoma
OVCAR-8 ovarian = system: OVCAR-8 ovarian
U251 CNS = system: U251 CNS
UO-31 renal = system: UO-31 renal

Row | SMILES | GI50 (ACHN renal) [µM] | TGI (ACHN renal) [µM] | GI50 (HOP-92 NSCLC) [µM] | TGI (HOP-92 NSCLC) [µM] | GI50 (NCI-H23 lung) [µM] | TGI (NCI-H23 lung) [µM] | GI50 (DU-145 prostate) [µM] | TGI (DU-145 prostate) [µM] | GI50 (EKVX NSCLC) [µM] | TGI (EKVX NSCLC) [µM] | GI50 (IGROV1 ovarian) [µM] | TGI (IGROV1 ovarian) [µM] | GI50 (UACC-257 melanoma) [µM] | TGI (UACC-257 melanoma) [µM] | GI50 (OVCAR-8 ovarian) [µM] | TGI (OVCAR-8 ovarian) [µM] | GI50 (U251 CNS) [µM] | TGI (U251 CNS) [µM] | GI50 (UO-31 renal) [µM] | TGI (UO-31 renal) [µM]
1 | COC(=O)CCc1n(Cc2ccc3ccccc3c2)c2ccccc2[n+]1Cc1ccc2ccccc2c1 | 3.71 | 13.1 | 0.152 | 1.12 | 0.583 | 2.56 | 1.45 | 3.34 | 1.63 | 5.63 | 0.441 | 1.9 | 0.549 | 2.37 | 1.27 | 3.02 | 1.04 | 2.3 | 2.25 | 10.2
2 | O=c1[nH]c(-c2ccc(Cl)c(Cl)c2)cn1-c1ccc(Cl)cc1 | 32.5 | > 100 | 15.9 | 46.3 | 16.4 | 37.1 | 29.1 | > 100 | 35.4 | > 100 | 22.6 | 79.5 | > 100 | > 100 | 34.7 | > 100 | 17.4 | 42.8 | 25.4 | 60.5
3 | COc1ccc(Nc2ncc(I)c(NCCCNC(=O)C3CCC3)n2)cc1 | 3.65 | > 100 | 3.04 | 29.2 | 5.26 | 46.9 | 9.21 | > 100 | 6.48 | 76.6 | 2.39 | 16.6 | 15 | 93 | 8.6 | > 100 | 2.08 | 28.9 | 0.73 | 3.85
4 | COc1cc2c(/C=C3\C(=O)N(C)c4ccccc43)c[nH]c2cc1C | 3.61 | 55.7 | 15.7 | 79.4 | 5.33 | > 67.9 | 6.77 | > 66.3 | 8.81 | > 100 | 7.87 | > 69.6 | 23.5 | > 100 | 4.14 | 45.1 | 0.499 | 29.6 | 11.5 | > 62
5 | NC(=O)c1cn(C2CC(O)C(CO)O2)c2ncnc(N)c12 (stereo not given) | 3.62 | > 58.1 | 0.429 | 13.6 | 2.5 | 18.8 | 1.41 | 10.4 | 1.92 | > 23.2 | 0.749 | 5.16 | 11 | > 63.4 | 2.09 | 17.9 | 17.7 | > 100 | 1.84 | 18.5
6 | O=Cc1ccc(-c2ccc(-c3nc4ccccc4s3)cc2)o1 | > 100 | > 100 | 94.3 | > 100 | 67.7 | > 100 | 35 | > 100 | > 100 | > 100 | > 100 | > 100 | > 100 | > 100 | 70.7 | > 100 | 35.2 | > 100 | > 100 | > 100
7 | CC1(C)C(=O)/C=C\C(=O)C(C)(C)C2=CC=C(O2)C(C)(C)C(=O)C(Br)C(Br)C(=O)C(C)(C)C2=CC=C1O2 (stereo not given) | – | > 46.4 | – | > 100 | – | > 100 | – | > 100 | – | > 100 | – | > 85.6 | – | > 100 | – | 40.1 | – | > 81.8 | – | > 100
8 | O=S(O)O.O=S(O)O.[Co].[NH2-].[NH2-].[NH2-].[NH2-] | > 100 | > 100 | > 100 | > 100 | > 100 | > 100 | > 100 | > 100 | > 100 | > 100 | > 100 | > 100 | > 100 | > 100 | > 100 | > 100 | > 100 | > 100 | > 100 | > 100
9 | Cc1cc(-c2nc3sc(C)cn3c2/C=N/N=C(N)N)c(C)s1 | 18.7 | 34.4 | 3.03 | 8.21 | 14.6 | 28.2 | 6.11 | 23 | 14.8 | 30.6 | 28.8 | > 100 | 22.2 | 44.2 | 17.6 | 43.6 | 11.2 | 25.5 | 32.7 | > 100
